Patent US9757424B2, “Compositions and methods of treating gliomas” (BioMed Valley Discoveries, Inc., priority 2011, dated 2017)

Tests used:
[1] = system: U87MG tumor fragments; assay: animal or person; conditions: for combination effect with temozolomide (median group tumor burden at Day 36): dosed in combination with 5 mg/kg temozolomide, FIG. 19
Description: HRLN female nu/nu mice were seeded with 1 mm^3 U87MG tumor fragments subcutaneously in the flank. Final caliper and body weight measurements were taken on the last day of the study.
All animals were assessed periodically for body weight, as well as tumor burden, using standard protocols with mechanical calipers. […] Dosing was stopped for any group with two measurements of mean body weight loss of greater than 20%. The group was not euthanized, and recovery was allowed. Within a group with greater than 20% weight loss, individuals reaching the individual body weight loss endpoint were euthanized. If the group body weight loss was recovered, dosing may resume. […] Dosing was then resumed with the candidate agent at half the original dose. Animals were monitored as a group. The endpoint of the experiment was a mean tumor weight in control group (or group 1) of 2000 mm^3 or 60 days, whichever comes first. When the endpoint was reached, all the animals were euthanized.

[2] = system: U87MG human glioblastoma xenografts; assay: U87MG human glioblastoma xenograft, tumor growth delay, 49-day study (Example 2);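 note: female athymic nude mice with subcutaneous tumors, groups of ten, tumors measured twice weekly, endpoint at 2000 mm^3 tumor volume or Day 49, treated compared with control mice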
Description: The experiment consisted of groups (n=10) of female athymic nude mice bearing subcutaneous U87MG xenografts (75-144 mm^3) on Day 1. Candesartan was evaluated as monotherapies at dosages of 1, 5, 10 and 50 mg/kg administered intraperitoneally (i.p.) on a once daily for twenty-one days (qd×21) schedule. […] Dosing was initiated on Day 1, and tumors were measured twice each week until the study was ended on Day 49. Animals were monitored individually and each mouse was euthanized for endpoint when its tumor attained a volume of 2000 mm^3 (about 2 grams) or on the final day (Day 49), whichever came first. Tumor samples were collected at endpoint, and histopathology analyses were performed.
The time to endpoint (TTE) was calculated for each mouse. Treatment outcome was determined from percent tumor growth delay (% TGD), defined as the percent increase in median TTE of treated versus control mice, with differences in the TTE values between groups deemed statistically significant at P 0.05 using logrank survival analysis. Animals were also monitored for partial regression (PR) and complete regression (CR) responses. Treatment tolerability was assessed by body weight measurements and frequent observation for signs of treatment-related (TR) toxicity.
Treatment response was determined from an analysis of percent tumor growth delay (% TGD), defined as the percent increase in the median time to endpoint (TTE) in treated versus control mice; by logrank significance of differences in survival among treatment groups; and by regression responses. Plots of group mean tumor growth were also considered. Treatment tolerability was assessed by body weight measurements and frequent observation for clinical symptoms of treatment-related (TR) side effects.
Xenografts were initiated with U87MG human glioblastomas (Piedmont Research Center, Morrisville, N.C.) by serial subcutaneous transplantation in athymic nude mice. Each test mouse received a U87MG tumor fragment (1 mm^3) implanted subcutaneously in the right flank, and the growth of tumors was monitored as the average size approached the target range of 80 to 120 mm^3. […] Tumor volume was calculated using the formula: Tumor Volume (mm^3)=w^2×l/2 where w=width and l=length in mm of a U87MG tumor. Tumor weight may be estimated with the assumption that 1 mg is equivalent to 1 mm^3 of tumor volume. Therapeutic Agents
Doses of valsartan and candesartan were each formulated weekly, and were stored at 4° C. Valsartan dosing solutions were formulated at concentrations of 15 and 3 mg/mL to yield the desired 150 and 30 mg/kg dosages, respectively, in a dosing volume of 0.2 mL per 20 grams body weight (10 mL/kg). The required amount of valsartan powder for the 15 mg/mL solution was suspended in sterile saline, then dissolved with 0.1 N NaOH and pH adjusted to 7.4 with 0.1 N HCl. The 3 mg/mL valsartan dosing solution was prepared by diluting an aliquot of the 15 mg/mL valsartan solution with sterile saline. Candesartan doses were formulated in 0.5% carboxymethyl cellulose (CMC) in deionized water at concentrations of 5, 1, 0.5 and 0.1 mg/mL to yield the desired 50, 10, 5 and 1 mg/kg dosages, respectively, in a dosing volume of 10 mL/kg.
Each test agent was administered intraperitoneally (i.p.) once daily for twenty-one days (qd×21), unless otherwise indicated.
Group 1 was not treated and served as the control group for calculation of % TGD. […] Groups 4-7 received candesartan at 50, 10, 5 or 1 mg/kg, respectively. […] All doses were scaled to the body weights of the individual animals.
Tumors were measured twice each week using calipers.

[3] = combination: temozolomide 5 po qd x 5 + agent qd x 30 (doses as under E7)
[4] = combination: temozolomide 5 po qd x 5 + agent qd x 30 (doses as under E7), number of animals
[5] = Group 4: candesartan 50 mg/kg ip qd x 21
[6] = Group 5: candesartan 10 mg/kg ip qd x 21
[7] = Group 6: candesartan 5 mg/kg ip qd x 21
[8] = Group 7: candesartan 1 mg/kg ip qd x 21

In the case of `CCOc1nc2cccc(C(=O)OC(C)OC(=O)OC3CCCCC3)c2n1Cc1ccc(-c2ccccc2-c2nn[nH]n2)cc1` (stereo not drawn) [Candesartan, candesartan cilexetil], the “MTV(n) Day 29 (median tumor volume)” value ([1]; combination: temozolomide 5 po qd x 5 + agent qd x 30 (Candesartan 10 ip, Valsartan 30 ip, Carvedilol 200 po, Irbesartan 100 po, Amlodipine 10 ip, Clonidine 1 ip, Olmesartan 10 po, Ramipril 5 po, Enalapril 5 ip, Benazepril 10 ip, Quinapril 15 po, Aliskiren 50 ip, Guanabenz 1 ip, Diltiazem 20 po, Lercanidipine 3 po, Labetalol 10 sc)) is reported as 32 (8) mm^3, the “Deaths NTR (non-treatment-related death)” value [1, 3] is reported as 0 and the “Deaths TR (treatment-related death)” value [1, 3] is reported as 0. The “Mean BW Nadir, day of nadir” value [1, 3] was “Day 3”, the “Regression CR (complete regression)” value [1, 4] was 0 and the “Regression PR (partial regression)” value [1, 4] was 6. The “% TGI (percent tumor growth inhibition, compared to Group 1)” value ([1]; combination: temozolomide 5 po qd x 5 + agent qd x 30 (doses as under E7), vs Group 1 temozolomide 5 alone) was 92%, the “% TGD (vs Group 1)” value [2, 5] was 9% and the “Deaths NTR” value [2, 5] was 0. For the same compound, the “Deaths TR” value [2, 5] was 0, the “MTV (n) Day 49” value [2, 5] was 1 (1) mm^3 and the “Median TTE” value [2, 5] was 12.7 days. For the same compound, the “Regressions CR” value [2, 5] was 1, the “Regressions PR” value [2, 5] was 0 and the “Regressions TFS” value [2, 5] was 1. The “T − C (TGD vs Group 1)” value [2, 5] was 1.1 days, the “% TGD (vs Group 1)” value [2, 6] was 20% and the “Deaths NTR” value [2, 6] was 0. The “Deaths TR” value [2, 6] was 0, the “Median TTE” value [2, 6] was 13.9 days and the “Regressions CR” value [2, 6] was 0. The “Regressions PR” value [2, 6] was 0, the “Regressions TFS” value [2, 6] was 0 and the “T − C (TGD vs Group 1)” value [2, 6] was 2.3 days. For the same compound, the “% TGD (vs Group 1)” value [2, 7] was 16%, the “Deaths NTR” value [2, 7] was 0 and the “Deaths TR” value [2, 7] was 0. The “Median TTE” value [2, 7] was 13.5 days, the “Regressions CR” value [2, 7] was 0 and the “Regressions PR” value [2, 7] was 0. For the same compound, the “Regressions TFS” value [2, 7] was 0, the “T − C (TGD vs Group 1)” value [2, 7] was 1.9 days and the “% TGD (vs Group 1)” value [2, 8] was 7%. The “Deaths TR” value [2, 8] was 0, the “Median TTE” value [2, 8] was 12.4 days and the “Regressions CR” value [2, 8] was 0. For the same compound, the “Regressions PR” value [2, 8] was 0, the “Regressions TFS” value [2, 8] was 0 and the “T − C (TGD vs Group 1)” value [2, 8] was 0.8 days. The “Deaths NTR” value ([2]; Group 7: candesartan 1 mg/kg ip qd x 21, accidental death on Day 5) was 1 and the efficacy conclusion ([2]; candesartan monotherapy 1, 5, 10, 50 mg/kg i.p. qd×21) was “not efficacious as monotherapy”.
`COc1ccccc1OCCNCC(O)COc1cccc2[nH]c3ccccc3c12` (stereo not drawn) [Carvedilol] was tested, and the “Deaths NTR (non-treatment-related death)” value [1, 3] was 0 and the “Deaths TR (treatment-related death)” value [1, 3] was 0.
With `Clc1cccc(Cl)c1N=C1NCCN1` [Clonidine] the “Deaths NTR (non-treatment-related death)” value [1, 3] was 0, the “Deaths TR (treatment-related death)” value [1, 3] was 0 and the “Mean BW Nadir, day of nadir” value [1, 3] was “Day 3”.
In the case of `CCOC(=O)[C@H](CCc1ccccc1)N[C@@H](C)C(=O)N1CCC[C@H]1C(=O)O` [Enalapril], the “Deaths NTR (non-treatment-related death)” value [1, 3] is reported as 0 and the “Deaths TR (treatment-related death)” value [1, 3] is reported as 0.
`N=C(N)N/N=C/c1c(Cl)cccc1Cl` [Guanabenz] was tested, and the “Deaths NTR (non-treatment-related death)” value [1, 3] was 0 and the “Deaths TR (treatment-related death)” value [1, 3] was 0.
For `CC(CCc1ccccc1)NCC(O)c1ccc(O)c(C(N)=O)c1` (stereo not drawn) [Labetalol], the “Deaths NTR (non-treatment-related death)” value [1, 3] was 0 and the “Deaths TR (treatment-related death)” value [1, 3] was 0.
`COCCCOc1cc(C[C@@H](C[C@H](N)[C@@H](O)C[C@H](C(=O)NCC(C)(C)C(N)=O)C(C)C)C(C)C)ccc1OC` [aliskerin, aliskiren] was tested, and the “Deaths NTR (non-treatment-related death)” value [1, 3] was 0 and the “Deaths TR (treatment-related death)” value [1, 3] was 0.
With `CCOC(=O)C1=C(COCCN)NC(C)=C(C(=O)OC)C1c1ccccc1Cl` (stereo not drawn) [amlodipine] the “Deaths NTR (non-treatment-related death)” value [1, 3] was 1, the “Deaths TR (treatment-related death)” value [1, 3] was 0 and the “Mean BW Nadir, day of nadir” value [1, 3] was “Day 3”.
For `CCOC(=O)[C@H](CCc1ccccc1)N[C@H]1CCc2ccccc2N(CC(=O)O)C1=O` [benazepril], the “Deaths NTR (non-treatment-related death)” value [1, 3] was 1, the “Deaths TR (treatment-related death)” value [1, 3] was 0 and the “combination effect with temozolomide (median group tumor burden at Day 36)” value (“combination effect with temozolomide” for short) [1] was “next in rank-order potency”.
For `COc1ccc([C@@H]2Sc3ccccc3N(CCN(C)C)C(=O)[C@@H]2OC(C)=O)cc1` [diltiazem], the “Deaths NTR (non-treatment-related death)” value [1, 3] was 0, the “Deaths TR (treatment-related death)” value [1, 3] was 0 and the “combination effect with temozolomide” value [1] was “modest combination effects”.
For `CCCCC1=NC2(CCCC2)C(=O)N1Cc1ccc(-c2ccccc2-c2nnn[nH]2)cc1` [irbesartan], the “Deaths NTR (non-treatment-related death)” value [1, 3] was 0, the “Deaths TR (treatment-related death)” value [1, 3] was 0 and the “Mean BW Nadir, day of nadir” value [1, 3] was “Day 3”.
In the case of `COC(=O)C1=C(C)NC(C)=C(C(=O)OC(C)(C)CN(C)CCC(c2ccccc2)c2ccccc2)C1c1cccc([N+](=O)[O-])c1` (stereo not drawn) [lercanidipine], the “combination effect with temozolomide” value [1] is reported as “modest combination effects”.
For `CCCc1nc(C(C)(C)O)c(C(=O)O)n1Cc1ccc(-c2ccccc2-c2nnn[nH]2)cc1` [olmesartan], the “Mean BW Nadir, day of nadir” value [1, 3] was “Day 3”.
With `CCOC(=O)[C@H](CCc1ccccc1)N[C@@H](C)C(=O)N1Cc2ccccc2C[C@H]1C(=O)O` [quinapril] the “Deaths NTR (non-treatment-related death)” value [1, 3] was 0, the “Deaths TR (treatment-related death)” value [1, 3] was 0 and the “Mean BW Nadir, day of nadir” value [1, 3] was “Day 3”. For the same compound, the “combination effect with temozolomide” value [1] was “next in rank-order potency”.
`CCOC(=O)[C@H](CCc1ccccc1)N[C@@H](C)C(=O)N1[C@H](C(=O)O)C[C@@H]2CCC[C@@H]21` [ramipril] was tested, and the “Deaths NTR (non-treatment-related death)” value [1, 3] was 0, the “Deaths TR (treatment-related death)” value [1, 3] was 0 and the “Mean BW Nadir, day of nadir” value [1, 3] was “Day 3”. For the same compound, the “combination effect with temozolomide” value [1] was “next in rank-order potency”.
In the case of `CCCCC(=O)N(Cc1ccc(-c2ccccc2-c2nnn[nH]2)cc1)[C@H](C(=O)O)C(C)C` [valsartan], the “Deaths NTR (non-treatment-related death)” value [1, 3] is reported as 0 and the “Deaths TR (treatment-related death)” value [1, 3] is reported as 0.
